From PubChem BioAssay AID1794801 (Yongcheng Song lab at Baylor College of Medicine, 2022)
The source made the active and inactive calls.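 The calls were made as follows: active = compounds that disrupt AF9 binding to the DOT1L peptide with an IC50 under 30 µM; inactive = the rest.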

target: Protein AF-9 (Homo sapiens) (UniProt P42568); experiment: inhibitors of AF9 AHD–DOT1L interaction, dose response, biochemical, AlphaLISA, MBP-tagged AHD, biotinylated peptide (AID 1794801); details: MBP-AF9 AHD and biotin-DOT1L peptide
Sequence (P42568 whole entry, looked up): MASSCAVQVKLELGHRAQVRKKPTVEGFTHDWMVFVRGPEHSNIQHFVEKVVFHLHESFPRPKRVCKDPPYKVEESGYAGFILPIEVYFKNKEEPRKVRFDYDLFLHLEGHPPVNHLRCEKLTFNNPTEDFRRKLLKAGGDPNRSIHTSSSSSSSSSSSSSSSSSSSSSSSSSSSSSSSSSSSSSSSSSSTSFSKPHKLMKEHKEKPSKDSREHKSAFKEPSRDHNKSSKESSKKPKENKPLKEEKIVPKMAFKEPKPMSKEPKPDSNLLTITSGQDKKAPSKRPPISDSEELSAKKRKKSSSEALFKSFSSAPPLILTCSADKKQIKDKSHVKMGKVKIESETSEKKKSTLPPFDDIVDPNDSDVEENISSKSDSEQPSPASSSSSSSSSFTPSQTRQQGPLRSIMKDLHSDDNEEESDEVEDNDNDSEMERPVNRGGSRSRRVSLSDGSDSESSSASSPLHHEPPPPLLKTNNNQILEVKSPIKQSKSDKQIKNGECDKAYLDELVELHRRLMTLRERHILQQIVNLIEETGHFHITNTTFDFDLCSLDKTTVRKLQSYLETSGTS

Row | IC50 | SMILES
1 | 4.6 µM | O=C(NCC1CCNCC1)c1cc2ccc(Nc3ccc(N4CCCCC4)cc3)cc2o1
2 | 2.5 µM | O=C(NCC1CCNCC1)c1cc2cc(-c3ccc(N4CCCCC4)cc3)ccc2s1
3 | 2.3 µM | O=C(NCC1CCNCC1)c1cc2ccc(Nc3ccc(N4CCCCC4)cc3)cc2s1
4 | > 30 µM (inactive) | O=C(NCC1CCNCC1)c1cc2cc(-c3cn[nH]c3)ccc2[nH]1
5 | 1.6 µM | O=C(NCC1CCNCC1)c1cc2ccc(-c3ccc(N4CCCCC4)cc3)cc2s1
6 | > 30 µM (inactive) | NCc1ccc(-c2ccc3cc(C(=O)NCC4CCNCC4)oc3c2)cc1
7 | 4.5 µM | O=C(NCC1CCNCC1)c1c[nH]c2cc(-c3ccc(N4CCCCC4)cc3)ccc12
8 | 2.8 µM | O=C(NCC1CCNCC1)c1cc2ccc(-c3ccc(N4CCCC4)cc3)cc2[nH]1
9 | 2.7 µM | O=C(NCC1CCNCC1)c1cc2cc(-c3ccc(N4CCCC4)cc3)ccc2[nH]1
10 | 3.6 µM | O=C(NCC1CCNCC1)c1cc2cc(-c3ccc(N4CCCCC4)cc3)ccc2[nH]1
11 | 2.9 µM | O=C(NCC1CCNCC1)c1c[nH]c2cc(-c3ccc(N4CCCC4)cc3)ccc12
12 | 3.3 µM | O=C(NCC1CCNCC1)c1cc2ccc(-c3ccc(N4CCCCC4)cc3)cc2[nH]1
13 | 5.3 µM | O=C(NCC1CCNCC1)c1cc2ccc(-c3ccc(N4CCCC4)cc3)cc2s1
